Experimental data taken from ChEMBL document CHEMBL1201862, “PubChem BioAssay data set” (2004).
Active and inactive are the calls of the source.

What was measured:
[1] = Luminescence Cell-Based Dose Response HTS to Identify Activators of Luciferase Translation or Activity in H4-C Neuroglioblastoma Cells. [Related pubchem assays: 1829 (Project Summary), 1814 (Primary HTS)]; type: functional
[2] = Luminescence Cell-Based Dose Response HTS to Identify Activators of 5'UTR Stem-Loop Driven Prion Protein mRNA Translation in H4-C Neuroglioblastoma Cells. [Related pubchem assays: 1829 (Project Summary), 1814 (Primary HTS)]; type: functional
[3] = Luminescence Cell-Based Dose Confirmation HTS to Identify Inhibitors of 5'UTR Stem-Loop Driven Alpha-Synuclein mRNA Translation in H4 Neuroglioblastoma Cells. [Related pubchem assays: 1827 (Project Summary), 1813 (Primary HTS)]; type: functional
[4] = Luminescence Cell-Based Dose Retest to Confirm Activators of 5'UTR Stem-Loop Driven Alpha-Synuclein mRNA Translation in H4 Neuroglioblastoma Cells. [Related pubchem assays (depositor defined):AID1813, AID1829]; type: functional
[5] = Luminescence Cell-Based Dose HTS Response to Identify Inhibitors of 5'UTR Stem-Loop Driven Prion Protein mRNA Translation in H4-C Neuroglioblastoma Cells. [Related pubchem assays (depositor defined):AID1814, AID1827]; type: functional
[6] = Luminescence Cell-Based Dose Response HTS to Identify Inhibitors of Luciferase Translation or Activity in H4-C Neuroglioblastoma Cells. [Related pubchem assays: 1813 (Primary HTS), 1827 (Project Summary)]; type: functional
Ion channel NompC = Ion channel NompC (Danio rerio, UniProt Q7T1G6); assay: Dose response cell-based high-throughput screening assay for agonists of the transient receptor potential channel N1 (TRPN1). [Related pubchem assays (depositor defined):AID1424, AID1448]; type: functional
Mucolipin-3 = Mucolipin-3 (Homo sapiens, UniProt Q8TDD5); assay: Fluorescence counterscreen assay for […] agonists: dose response cell-based high-throughput screening assay to identify agonists of the transient receptor potential channel ML3 (TRPML3). [Related pubchem assays: 1424, 1448 ]; type: functional
Nonstructural protein 1 = Nonstructural protein 1 (Influenza A virus, UniProt Q194T2); type: functional, Influenza A virus (A/California/07/2009(H1N1))
Bcl-2-related protein A1 = target: T1, Bcl-2-related protein A1 (Mus musculus, UniProt Q07440); type: functional;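 note: confirmatory dose–response counterscreen on Bfl-1, used to check hits from a UBC13 polyubiquitin inhibitor campaign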
T1 sequence (Q07440 whole entry): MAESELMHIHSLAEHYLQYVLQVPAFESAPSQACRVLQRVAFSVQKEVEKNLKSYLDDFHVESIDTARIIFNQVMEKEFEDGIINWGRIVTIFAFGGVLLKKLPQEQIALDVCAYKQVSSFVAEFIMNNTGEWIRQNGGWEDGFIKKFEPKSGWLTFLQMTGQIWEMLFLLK

[7] = target: T2, Ubiquitin-conjugating enzyme E2 N (Homo sapiens, UniProt P61088); type: functional
T2 sequence (P61088 whole entry): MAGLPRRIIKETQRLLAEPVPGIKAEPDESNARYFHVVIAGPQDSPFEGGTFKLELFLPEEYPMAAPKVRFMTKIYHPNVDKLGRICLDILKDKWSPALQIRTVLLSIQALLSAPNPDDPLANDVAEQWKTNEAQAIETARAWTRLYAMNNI

[8] = target: T2, Ubiquitin-conjugating enzyme E2 N; type: functional; remark: listed apart in the source
[9] = target: T3, Replicative DNA helicase DnaB (Mycobacterium tuberculosis, UniProt P9WMR3); assay: DnaB intein splicing inhibitors, dose response, biochemical, cell-free fluorescence (AID 449749); type: functional
T3 sequence (P9WMR3 whole entry): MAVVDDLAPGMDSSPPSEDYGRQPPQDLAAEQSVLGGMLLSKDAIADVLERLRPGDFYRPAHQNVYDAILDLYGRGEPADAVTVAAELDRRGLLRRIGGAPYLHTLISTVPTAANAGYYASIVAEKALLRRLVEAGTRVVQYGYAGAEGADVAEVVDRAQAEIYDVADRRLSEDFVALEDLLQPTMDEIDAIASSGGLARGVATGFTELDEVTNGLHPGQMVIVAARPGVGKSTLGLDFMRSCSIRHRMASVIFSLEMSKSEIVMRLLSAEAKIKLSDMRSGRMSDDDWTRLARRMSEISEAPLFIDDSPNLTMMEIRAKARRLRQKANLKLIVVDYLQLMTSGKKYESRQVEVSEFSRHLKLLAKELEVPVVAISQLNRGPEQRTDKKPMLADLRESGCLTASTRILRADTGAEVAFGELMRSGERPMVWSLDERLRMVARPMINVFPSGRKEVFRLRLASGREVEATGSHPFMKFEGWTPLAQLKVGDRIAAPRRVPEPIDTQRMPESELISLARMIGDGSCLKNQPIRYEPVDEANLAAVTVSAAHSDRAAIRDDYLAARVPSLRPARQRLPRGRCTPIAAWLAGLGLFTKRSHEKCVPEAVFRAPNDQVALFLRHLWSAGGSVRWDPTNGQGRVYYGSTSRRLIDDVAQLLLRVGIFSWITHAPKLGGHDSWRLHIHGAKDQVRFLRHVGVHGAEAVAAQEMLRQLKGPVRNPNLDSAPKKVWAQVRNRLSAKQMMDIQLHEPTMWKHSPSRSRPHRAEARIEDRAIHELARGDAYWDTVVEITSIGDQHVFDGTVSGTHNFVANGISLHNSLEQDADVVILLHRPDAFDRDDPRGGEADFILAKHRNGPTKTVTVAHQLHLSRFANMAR

[10] = Luminescent dose response cell-based high throughput screening assay for inhibitors of the Janus kinase 2 mutant JAK2V617F. [Related pubchem assays: 1446 (Primary screen.), 1521 (Confirmation assay.), 1486 (Counter screen.)]; type: functional
Protein RecA = target: T4, Protein RecA (Mycobacterium tuberculosis, UniProt P9WHJ3); assay: Fluorescence Cell-Free Homogeneous Dose Retest to Identify Inhibitors of RecA-Intein Splicing Activity. [Related pubchem assays (depositor defined):AID2097, AID2223, AID489010, AID492950]; type: functional
T4 sequence (P9WHJ3 whole entry): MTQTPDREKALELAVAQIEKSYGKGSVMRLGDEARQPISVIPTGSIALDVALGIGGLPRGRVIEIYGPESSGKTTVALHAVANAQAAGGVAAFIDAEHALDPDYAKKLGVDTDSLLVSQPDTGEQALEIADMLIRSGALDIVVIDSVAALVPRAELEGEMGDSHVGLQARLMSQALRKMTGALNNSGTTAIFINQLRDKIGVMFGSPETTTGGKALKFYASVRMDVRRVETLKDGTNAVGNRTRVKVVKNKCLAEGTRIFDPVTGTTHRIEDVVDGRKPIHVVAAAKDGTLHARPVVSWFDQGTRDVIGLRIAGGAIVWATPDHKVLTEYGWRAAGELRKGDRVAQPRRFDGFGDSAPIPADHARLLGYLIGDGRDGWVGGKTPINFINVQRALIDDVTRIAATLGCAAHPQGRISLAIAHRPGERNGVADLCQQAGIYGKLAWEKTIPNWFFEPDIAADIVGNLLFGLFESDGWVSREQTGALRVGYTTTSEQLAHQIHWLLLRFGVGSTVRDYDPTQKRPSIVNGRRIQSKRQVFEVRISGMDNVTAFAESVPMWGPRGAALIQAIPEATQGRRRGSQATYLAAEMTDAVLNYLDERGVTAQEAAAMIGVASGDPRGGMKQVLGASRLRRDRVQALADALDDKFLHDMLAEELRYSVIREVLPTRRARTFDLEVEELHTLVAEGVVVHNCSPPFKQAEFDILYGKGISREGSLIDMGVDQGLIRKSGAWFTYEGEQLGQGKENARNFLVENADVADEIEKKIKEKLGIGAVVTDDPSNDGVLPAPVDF

[11] = Intein inhibitors as potential Tuberculosis drugs, a cytotoxicity screen. [Related pubchem assays (depositor defined):AID2221, AID2223, AID434968, AID435010, AID449749, AID449750, AID489010]; type: functional
[12] = toxicity toward cultured mammalian cells – cell-based, plate reader, cherry-pick samples, cytotoxicity control, dose response (AID 504397); type: functional
Mu-type opioid receptor = Mu-type opioid receptor (Homo sapiens, UniProt P35372); assay: SAR Analysis of Agonists of the MOR Receptor using an Image-Based Assay - Set 3. [Related pubchem assays (depositor defined):AID1777, AID1785, AID1786, AID1966, AID2133, AID2136, AID2284, AID2285, AID2352]; type: functional
[13] = target: T5, Kappa-type opioid receptor (Homo sapiens, UniProt P41145); assay: kappa opioid receptor activation by imaging – image-based, set 3, SAR follow-up (AID 488833); type: functional
[14] = target: T5, Kappa-type opioid receptor; assay: SAR analysis of small molecule agonists of the kappa opioid receptor via a luminescent beta-arrestin assay - Set 3. [Related pubchem assays (depositor defined):AID1777, AID1785, AID1786, AID1966, AID2133, AID2136, AID2284, AID2500]; type: functional
[15] = target: Delta-type opioid receptor (Homo sapiens, UniProt P41143); assay: SAR Analysis of Agonists of the DOR Receptor using an Image-Based Assay - Set 3. [Related pubchem assays (depositor defined):AID1777, AID1786]; type: functional
[16] = target: G-protein coupled receptor 55 (Homo sapiens, UniProt Q9Y2T6); assay: SAR Analysis of Selective Antagonists of GPR55 using an Image-Based Assay - Set 4. [Related pubchem assays (depositor defined):AID2013, AID2026]; type: functional;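 note: antagonism of response to 5 µM lysophosphatidylinositol agonist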
Cannabinoid receptor 1 [17] = target: T6, Cannabinoid receptor 1 (Homo sapiens, UniProt P21554); assay: SAR analysis of antagonists of the Cannabinoid Receptor 1 using an Image-Based Assay - Set 4. [Related pubchem assays (depositor defined):AID2013, AID2026]; type: functional
[18] = target: T7, G-protein coupled receptor 35 (Homo sapiens, UniProt Q9HC97); assay: SAR analysis of Agonists of the GPR35 Receptor using an Image-Based Assay - Set 4. [Related pubchem assays (depositor defined):AID2013, AID2026]; type: functional
Cannabinoid receptor 1 [19] = target: T6, Cannabinoid receptor 1; assay: SAR analysis of agonists of the Cannabinoid Receptor 1 using an Image-Based Assay - Set 4. [Related pubchem assays (depositor defined):AID2013, AID2026]; type: functional
Cannabinoid receptor 2 [20] = target: T8, Cannabinoid receptor 2 (Homo sapiens, UniProt P34972); assay: SAR analysis of antagonists of the Cannabinoid Receptor 2 using an Image-Based Assay - Set 3. [Related pubchem assays (depositor defined):AID2013, AID2026]; type: functional
[21] = target: T7, G-protein coupled receptor 35; assay: SAR analysis of Antagonists of the GPR35 Receptor using an Image-Based Assay - Set 6. [Related pubchem assays (depositor defined):AID2013, AID2026]; type: functional
Cannabinoid receptor 2 [22] = target: T8, Cannabinoid receptor 2; assay: SAR analysis of agonists of the Cannabinoid Receptor 2 using an Image-Based Assay - Set 3. [Related pubchem assays (depositor defined):AID2013, AID2026]; type: functional
[23] = target: T9, Type-1 angiotensin II receptor (Homo sapiens, UniProt P30556); assay: agonist activity at AGTR1 – cell-based, uHTS hits, selectivity assay for APJ receptor agonist project, dose response (AID 488865); type: functional;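 note: beta-arrestin recruitment to AT1 measured by enzyme fragment complementation luminescence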
T9 sequence (P30556 whole entry): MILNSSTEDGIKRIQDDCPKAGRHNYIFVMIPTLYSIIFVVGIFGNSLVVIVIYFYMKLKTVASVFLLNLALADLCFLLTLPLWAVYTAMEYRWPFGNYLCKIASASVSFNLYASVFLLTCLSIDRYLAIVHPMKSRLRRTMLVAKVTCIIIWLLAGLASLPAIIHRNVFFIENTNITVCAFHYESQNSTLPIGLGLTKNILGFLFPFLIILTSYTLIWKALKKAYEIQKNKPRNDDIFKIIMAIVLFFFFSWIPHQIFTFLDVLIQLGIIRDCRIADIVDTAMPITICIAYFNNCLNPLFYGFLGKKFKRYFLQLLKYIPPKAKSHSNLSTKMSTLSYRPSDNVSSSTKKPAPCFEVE
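Throughout, for CC50: cells exposed to compound for 72 hours before luminescence readout.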

Oc1ccccc1/N=N/c1ccccc1O
EC50 [1]: 0.929 µM (inconclusive)
EC50 [2]: 0.399 µM (inconclusive)
EC50 [3]: 1.7 µM (active)
EC50 [4]: 1.77 µM (inconclusive)
EC50 [5]: 1.09 µM (active)
EC50 [6]: 1.36 µM (active)

CCN1C(=O)/C(=C/C=C2\N(CC)c3cc(S(=O)(=O)N(C)C)ccc3N2c2ccccc2)SC1=S
EC50 (Ion channel NompC): 1.62 µM (active)
EC50 (Mucolipin-3): > 29.9 µM (not active)
IC50 (Nonstructural protein 1): 55.3 µM (active)

CCOc1ccc(-c2csc(NC(=O)c3cccc(N4C(=O)CCC4=O)c3)n2)cc1
IC50 (Bcl-2-related protein A1): > 20 µM (inactive)
IC50 [7]: 15.7 µM (active)
IC50 [8]: > 20 µM (inactive)

Cc1ccc(C)c(Sc2ccc(NC(=O)CCl)cc2)c1
AC50 [9]: 2.3 µM (active)
IC50 [10]: 0.743 µM (active)
EC50 (Protein RecA): 0.602 µM (active)
CC50 [11]: 7.6 µM (active)

O=C(Nc1ccccc1N1CCOCC1)C1CCN(S(=O)(=O)c2ccc(F)cc2)CC1
AC50 [12]: > 350 µM (inactive)

FC(F)(F)c1cc(CSc2nnc(-c3ccccn3)n2Cc2cccs2)ccc1Cl
EC50 (Mu-type opioid receptor): > 32 µM (inactive)
EC50 [13]: 1.38 µM (active)
EC50 [14]: 0.432 µM (active)
EC50 [15]: > 32 µM (inactive)

Cc1nnc(-c2ccccc2)c2cn(-c3ccc(Cl)cc3)nc12
IC50 [16]: 1.77 µM (active)
IC50 (Cannabinoid receptor 1 [17]): 3.63 µM (active)
EC50 [18]: > 32 µM (inactive)
EC50 (Cannabinoid receptor 1 [19]): > 32 µM (inactive)
IC50 (Cannabinoid receptor 2 [20]): > 32 µM (inactive)
IC50 [21]: 23 µM (inactive)
EC50 (Cannabinoid receptor 2 [22]): > 32 µM (inactive)

Cc1ccc(/C=N/NC(=O)CSc2nnc(-c3ccccc3)n2-c2ccc(Cl)cc2)o1
EC50 [23]: > 100 µM (inactive)
